Assay results published in PubChem BioAssay AID1963846 (Molecular Pharmacology Branch, DTP, NCI, 2024).

Test system: 454973-116-R2-J3-PDC complex spheroid viability
Assay: Anticancer human tumor 454973-116-R2-J3-PDC patient-derived pancreatic carcinoma cell line growth inhibition [POLQ]
Details: for IC50: curve of first compound; for viability, T/C: stronger effect = lower value
Outline: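 Complex spheroid viability model combining PDC tumour cells with endothelial (HUVEC) and MSC stromal cells. Novobiocin, ART-558 or RP6685 were tested singly and in combination with standard and investigational anticancer drugs. Each was titrated in half-log steps from near clinical Cmax, or from 10 microM where Cmax was unknown.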

[1] = second compound 0.0316 µM, first compound 0.00316 µM
[2] = second compound 0.0316 µM, first compound 0.01 µM
[3] = second compound 0.0316 µM, first compound 0.0316 µM
[4] = second compound 0.0316 µM, first compound 0.1 µM
[5] = second compound 0.0316 µM, first compound 0.316 µM
[6] = second compound 0.0316 µM, first compound 1 µM
[7] = second compound 0.1 µM, first compound 0.00316 µM
[8] = second compound 0.1 µM, first compound 0.01 µM
[9] = second compound 0.1 µM, first compound 0.0316 µM
[10] = second compound 0.1 µM, first compound 0.1 µM
[11] = second compound 0.1 µM, first compound 0.316 µM
[12] = second compound 0.1 µM, first compound 1 µM
[13] = second compound 0.316 µM, first compound 0.00316 µM
[14] = second compound 0.316 µM, first compound 0.01 µM
[15] = second compound 0.316 µM, first compound 0.0316 µM
[16] = second compound 0.316 µM, first compound 0.1 µM
[17] = second compound 0.316 µM, first compound 0.316 µM
[18] = second compound 0.316 µM, first compound 1 µM
[19] = second compound 1 µM, first compound 0.00316 µM
[20] = second compound 1 µM, first compound 0.01 µM
[21] = second compound 1 µM, first compound 0.0316 µM
[22] = second compound 1 µM, first compound 0.1 µM
[23] = second compound 1 µM, first compound 0.316 µM
[24] = second compound 1 µM, first compound 1 µM
[25] = second compound 3.16 µM, first compound 0.00316 µM
[26] = second compound 3.16 µM, first compound 0.01 µM
[27] = second compound 3.16 µM, first compound 0.0316 µM
[28] = second compound 3.16 µM, first compound 0.1 µM
[29] = second compound 3.16 µM, first compound 0.316 µM
[30] = second compound 3.16 µM, first compound 1 µM
[31] = second compound 10 µM, first compound 0.00316 µM
[32] = second compound 10 µM, first compound 0.01 µM
[33] = second compound 10 µM, first compound 0.0316 µM
[34] = second compound 10 µM, first compound 0.1 µM
[35] = second compound 10 µM, first compound 0.316 µM
[36] = second compound 10 µM, first compound 1 µM
[37] = second compound 0.0316 µM, first compound 3.16 µM
[38] = second compound 0.0316 µM, first compound 10 µM
[39] = second compound 0.1 µM, first compound 3.16 µM
[40] = second compound 0.1 µM, first compound 10 µM
[41] = second compound 0.316 µM, first compound 3.16 µM
[42] = second compound 0.316 µM, first compound 10 µM
[43] = second compound 1 µM, first compound 3.16 µM
[44] = second compound 1 µM, first compound 10 µM
[45] = second compound 3.16 µM, first compound 3.16 µM
[46] = second compound 3.16 µM, first compound 10 µM
[47] = second compound 10 µM, first compound 3.16 µM
[48] = second compound 10 µM, first compound 10 µM
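Also: spheroids exposed to drugs for seven days before measurement.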
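For viability, T/C in this document: percent viability relative to DMSO vehicle control wells taken as 100%.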

## C=CCn1c(=O)c2cnc(Nc3ccc(N4CCN(C)CC4)cc3)nc2n1-c1cccc(C(C)(C)O)n1 + Nc1ccc(C#CCN(C(=O)Cc2ncc(C(F)(F)F)cc2C(F)(F)F)c2ccc(F)cc2)nn1
Second compound 0.0316 µM
  IC50: 455 nM
Second compound 0.1 µM
  IC50: 451 nM
Second compound 0.316 µM
  IC50: 515 nM
Second compound 1 µM
  IC50: 408 nM
Second compound 3.16 µM
  IC50: 475 nM
Second compound 10 µM
  IC50: 423 nM
[1]
  viability, T/C: 108%
[2]
  viability, T/C: 100%
[3]
  viability, T/C: 104%
[4]
  viability, T/C: 99%
[5]
  viability, T/C: 68.7%
[6]
  viability, T/C: 9.62%
[7]
  viability, T/C: 106%
[8]
  viability, T/C: 102%
[9]
  viability, T/C: 102%
[10]
  viability, T/C: 104%
[11]
  viability, T/C: 68.5%
[12]
  viability, T/C: 8.41%
[13]
  viability, T/C: 99.3%
[14]
  viability, T/C: 109%
[15]
  viability, T/C: 106%
[16]
  viability, T/C: 107%
[17]
  viability, T/C: 79.3%
[18]
  viability, T/C: 10.2%
[19]
  viability, T/C: 105%
[20]
  viability, T/C: 101%
[21]
  viability, T/C: 114%
[22]
  viability, T/C: 114%
[23]
  viability, T/C: 62.3%
[24]
  viability, T/C: 6.99%
[25]
  viability, T/C: 105%
[26]
  viability, T/C: 114%
[27]
  viability, T/C: 115%
[28]
  viability, T/C: 114%
[29]
  viability, T/C: 72.7%
[30]
  viability, T/C: 8.66%
[31]
  viability, T/C: 116%
[32]
  viability, T/C: 116%
[33]
  viability, T/C: 129%
[34]
  viability, T/C: 112%
[35]
  viability, T/C: 65%
[36]
  viability, T/C: 6.21%

## CCCS(=O)(=O)Nc1ccc(F)c(C(=O)c2c[nH]c3ncc(-c4ccc(Cl)cc4)cc23)c1F + Nc1ccc(C#CCN(C(=O)Cc2ncc(C(F)(F)F)cc2C(F)(F)F)c2ccc(F)cc2)nn1
Second compound 0.0316 µM
  IC50: 8620 nM
Second compound 0.1 µM
  IC50: 8220 nM
Second compound 0.316 µM
  IC50: 8450 nM
Second compound 1 µM
  IC50: 8620 nM
Second compound 3.16 µM
  IC50: 8460 nM
Second compound 10 µM
  IC50: 7560 nM
[3]
  viability, T/C: 106%
[4]
  viability, T/C: 109%
[5]
  viability, T/C: 117%
[6]
  viability, T/C: 114%
[37]
  viability, T/C: 114%
[38]
  viability, T/C: 40.7%
[9]
  viability, T/C: 104%
[10]
  viability, T/C: 109%
[11]
  viability, T/C: 108%
[12]
  viability, T/C: 115%
[39]
  viability, T/C: 113%
[40]
  viability, T/C: 37.6%
[15]
  viability, T/C: 106%
[16]
  viability, T/C: 109%
[17]
  viability, T/C: 110%
[18]
  viability, T/C: 114%
[41]
  viability, T/C: 120%
[42]
  viability, T/C: 39.5%
[21]
  viability, T/C: 112%
[22]
  viability, T/C: 116%
[23]
  viability, T/C: 116%
[24]
  viability, T/C: 117%
[43]
  viability, T/C: 114%
[44]
  viability, T/C: 40.4%
[27]
  viability, T/C: 116%
[28]
  viability, T/C: 118%
[29]
  viability, T/C: 112%
[30]
  viability, T/C: 115%
[45]
  viability, T/C: 113%
[46]
  viability, T/C: 39.3%
[33]
  viability, T/C: 133%
[34]
  viability, T/C: 116%
[35]
  viability, T/C: 117%
[36]
  viability, T/C: 116%
[47]
  viability, T/C: 116%
[48]
  viability, T/C: 28.9%

## CNCc1ccc(-c2[nH]c3cc(F)cc4c3c2CCNC4=O)cc1 + Nc1ccc(C#CCN(C(=O)Cc2ncc(C(F)(F)F)cc2C(F)(F)F)c2ccc(F)cc2)nn1
Second compound 0.0316 µM
  IC50: > 10000 nM
Second compound 0.1 µM
  IC50: > 10000 nM
Second compound 0.316 µM
  IC50: > 10000 nM
Second compound 1 µM
  IC50: > 10000 nM
Second compound 3.16 µM
  IC50: > 10000 nM
Second compound 10 µM
  IC50: > 10000 nM
[3]
  viability, T/C: 114%
[4]
  viability, T/C: 101%
[5]
  viability, T/C: 109%
[6]
  viability, T/C: 94.5%
[37]
  viability, T/C: 104%
[38]
  viability, T/C: 91.9%
[9]
  viability, T/C: 103%
[10]
  viability, T/C: 96.2%
[11]
  viability, T/C: 95.8%
[12]
  viability, T/C: 90.3%
[39]
  viability, T/C: 98.2%
[40]
  viability, T/C: 95.4%
[15]
  viability, T/C: 105%
[16]
  viability, T/C: 100%
[17]
  viability, T/C: 105%
[18]
  viability, T/C: 95.6%
[41]
  viability, T/C: 101%
[42]
  viability, T/C: 95.9%
[21]
  viability, T/C: 110%
[22]
  viability, T/C: 106%
[23]
  viability, T/C: 106%
[24]
  viability, T/C: 108%
[43]
  viability, T/C: 110%
[44]
  viability, T/C: 91%
[27]
  viability, T/C: 113%
[28]
  viability, T/C: 115%
[29]
  viability, T/C: 108%
[30]
  viability, T/C: 98.7%
[45]
  viability, T/C: 121%
[46]
  viability, T/C: 90.6%
[33]
  viability, T/C: 116%
[34]
  viability, T/C: 102%
[35]
  viability, T/C: 112%
[36]
  viability, T/C: 117%
[47]
  viability, T/C: 119%
[48]
  viability, T/C: 85%

## COc1cccc(OCCCN)c1-c1cc(Nc2cnc(C#N)cn2)n[nH]1 + Nc1ccc(C#CCN(C(=O)Cc2ncc(C(F)(F)F)cc2C(F)(F)F)c2ccc(F)cc2)nn1
Second compound 0.0316 µM
  IC50: 15.6 nM
Second compound 0.1 µM
  IC50: 13.6 nM
Second compound 0.316 µM
  IC50: 14.3 nM
Second compound 1 µM
  IC50: 13.9 nM
Second compound 3.16 µM
  IC50: 13.7 nM
Second compound 10 µM
  IC50: 11.6 nM
[1]
  viability, T/C: 100%
[2]
  viability, T/C: 76.6%
[3]
  viability, T/C: 7.44%
[4]
  viability, T/C: 5.67%
[5]
  viability, T/C: 5.56%
[6]
  viability, T/C: 4.28%
[7]
  viability, T/C: 101%
[8]
  viability, T/C: 63.5%
[9]
  viability, T/C: 12.7%
[10]
  viability, T/C: 6.65%
[11]
  viability, T/C: 5.32%
[12]
  viability, T/C: 4.22%
[13]
  viability, T/C: 110%
[14]
  viability, T/C: 67.2%
[15]
  viability, T/C: 11.2%
[16]
  viability, T/C: 7.21%
[17]
  viability, T/C: 5.08%
[18]
  viability, T/C: 4.5%
[19]
  viability, T/C: 99.7%
[20]
  viability, T/C: 67.3%
[21]
  viability, T/C: 6.4%
[22]
  viability, T/C: 5.68%
[23]
  viability, T/C: 5.11%
[24]
  viability, T/C: 3.75%
[25]
  viability, T/C: 101%
[26]
  viability, T/C: 66.7%
[27]
  viability, T/C: 5.97%
[28]
  viability, T/C: 5.07%
[29]
  viability, T/C: 5.91%
[30]
  viability, T/C: 4.97%
[31]
  viability, T/C: 113%
[32]
  viability, T/C: 56.4%
[33]
  viability, T/C: 5.54%
[34]
  viability, T/C: 5.59%
[35]
  viability, T/C: 5.26%
[36]
  viability, T/C: 4.7%
